# Assay results published in ChEMBL document CHEMBL3526147, “Tissue distribution and characterization of drug-related material in rats and dogs after repeated oral administration of casopitant” (Drug Metab Dispos, 2011).
# Assays:
# Plasma [1] = experiment: Drug level in plasma of Sprague-Dawley rat treated with [14C]casopitant mesylate at 60 mg/kg/day, po administered as repeat dose measured after 24 hrs on day 20 by HPLC-MS/MS method relative to [14C]casopitant mesylate radioactivity; format: ADME, organism-based; design: dosed compound name [14C]Casopitant, route oral; details: in vivo
# Plasma [2] = experiment: Drug level in plasma of beagle dog treated with [14C]casopitant mesylate at 40 mg/kg/day, po administered as repeat dose measured after 24 hrs on day 14 by HPLC-MS/MS method relative to [14C]casopitant mesylate radioactivity; format: ADME, organism-based, Canis lupus familiaris; design: dosed compound name [14C]Casopitant, route oral; details: in vivo
# [3] = Drug level in myocardium of beagle dog treated with [14C]casopitant mesylate at 40 mg/kg/day, po administered as repeat dose measured after 24 hrs on day 14 by HPLC-MS/MS method relative to [14C]casopitant mesylate radioactivity; format: ADME, organism-based, Canis lupus familiaris; design: dosed compound name [14C]Casopitant, route oral; details: in vivo
# [4] = Drug level in skeletal muscle of beagle dog treated with [14C]casopitant mesylate at 40 mg/kg/day, po administered as repeat dose measured after 24 hrs on day 14 by HPLC-MS/MS method relative to [14C]casopitant mesylate radioactivity; format: ADME, organism-based, Canis lupus familiaris, Muscle tissue; design: dosed compound name [14C]Casopitant, route oral; details: in vivo
# [5] = Drug level in kidney of beagle dog treated with [14C]casopitant mesylate at 40 mg/kg/day, po administered as repeat dose measured after 24 hrs on day 14 by HPLC-MS/MS method relative to [14C]casopitant mesylate radioactivity; format: ADME, organism-based, Canis lupus familiaris; design: dosed compound name [14C]Casopitant, route oral; details: in vivo
# [6] = Drug level in lung of beagle dog treated with [14C]casopitant mesylate at 40 mg/kg/day, po administered as repeat dose measured after 24 hrs on day 14 by HPLC-MS/MS method relative to [14C]casopitant mesylate radioactivity; format: ADME, organism-based, Canis lupus familiaris; design: dosed compound name [14C]Casopitant, route oral; details: in vivo
# Canis familiaris [7] = experiment: AUC (0 to t) in beagle dog treated with [14C]casopitant mesylate at 40 mg/kg/day, po administered as repeat dose measured after 26 weeks by HPLC-MS/MS method; format: ADME, organism-based, Canis lupus familiaris, Plasma; design: dosed compound name [14C]Casopitant, route oral; details: in vivo, 4368 h
# Canis familiaris [8] = experiment: Cmax in beagle dog treated with [14C]casopitant mesylate at 40 mg/kg/day, po administered as repeat dose measured after 26 weeks by HPLC-MS/MS method; format: ADME, organism-based, Canis lupus familiaris; design: dose 40 mg/kg/day, dosed compound name [14C]Casopitant, route oral; details: in vivo, 4368 h
# Canis familiaris [9] = experiment: Tmax in beagle dog treated with [14C]casopitant mesylate at 40 mg/kg/day, po administered as repeat dose measured after 26 weeks by HPLC-MS/MS method; format: ADME, organism-based, Canis lupus familiaris; design: dosed compound name [14C]Casopitant, route oral; details: in vivo, 4368 h
# [10] = Drug level in myocardium of beagle dog treated with [14C]casopitant mesylate at 40 mg/kg/day, po administered as repeat dose measured after 6 weeks by HPLC-MS/MS method; format: ADME, organism-based, Canis lupus familiaris; design: dosed compound name [14C]Casopitant, route oral; details: in vivo, 1008 h
# [11] = Drug level in myocardium of beagle dog treated with [14C]casopitant mesylate at 40 mg/kg/day, po administered as repeat dose measured after 20 weeks by HPLC-MS/MS method; format: ADME, organism-based, Canis lupus familiaris; design: dosed compound name [14C]Casopitant, route oral; details: in vivo, 3360 h
# [12] = Drug level in myocardium of beagle dog treated with [14C]casopitant mesylate at 40 mg/kg/day, po administered as repeat dose measured after 13 weeks by HPLC-MS/MS method; format: ADME, organism-based, Canis lupus familiaris; design: dosed compound name [14C]Casopitant, route oral; details: in vivo, 2184 h
# [13] = Drug level in myocardium of beagle dog treated with [14C]casopitant mesylate at 40 mg/kg/day, po administered as repeat dose measured after 26 weeks by HPLC-MS/MS method; format: ADME, organism-based, Canis lupus familiaris; design: dosed compound name [14C]Casopitant, route oral; details: in vivo, 4368 h
# [14] = Drug level in myocardium of beagle dog treated with [14C]casopitant mesylate at 40 mg/kg/day, po administered as repeat dose measured after 22 weeks post dosing withdrawal by HPLC-MS/MS method; format: ADME, organism-based, Canis lupus familiaris; design: dosed compound name [14C]Casopitant, route oral; details: in vivo, 3696 h
# Plasma [15] = experiment: Drug level in beagle dog plasma treated with [14C]casopitant mesylate at 40 mg/kg/day, po administered as repeat dose measured during 24 hrs dosing interval on week 26 by HPLC-MS/MS method; format: ADME, organism-based, Canis lupus familiaris; design: dosed compound name [14C]Casopitant, route oral; details: in vivo
Compound recovery (Plasma [1]),Compound recovery (Plasma [2]),Compound recovery [3],Compound recovery [4],Compound recovery [5],Compound recovery [6],AUCt (Canis familiaris [7]) [ng·h/mL],Cmax (Canis familiaris [8]) [ng/mL],Tmax (Canis familiaris [9]) [h],Compound recovery [10] [ng/g],Compound recovery [11] [ng/g],Compound recovery [12] [ng/g],Compound recovery [13] [ng/g],Drug concentration in myocardium [14] [ng/g],Compound recovery (Plasma [2]; BLD = below limit of detection),Compound recovery (Plasma [15]),SMILES
Metabolite not detected,–,3.7%,2.4%,4.8%,2.3%,1442,65.5,24,39180,85193,62780,114014,31732,BLD,–,Cc1cc(F)ccc1[C@H]1C[C@@H](NCCN)CCN1C(=O)N(C)[C@H](C)c1cc(C(F)(F)F)cc(C(F)(F)F)c1
–,–,–,–,–,–,3040,189,1,2379,9399,5386,6644,< 50,–,metabolite_detected,CC(=O)NCCN[C@H]1CCN(C(=O)N(C)[C@H](C)c2cc(C(F)(F)F)cc(C(F)(F)F)c2)[C@@H](c2ccc(F)cc2C)C1
4.6%,Metabolite not detected,Metabolite not detected,Metabolite not detected,Metabolite not detected,Metabolite not detected,–,–,–,–,–,–,–,–,–,–,C[C@@H](NC(N)=O)c1cc(C(F)(F)F)cc(C(F)(F)F)c1
–,–,–,–,–,–,22858,1044,24,29401,52699,39073,58640,408,–,metabolite_detected,Cc1cc(F)ccc1[C@H]1C[C@@H](N)CCN1C(=O)N(C)[C@H](C)c1cc(C(F)(F)F)cc(C(F)(F)F)c1

# The next lines start with the compound.
SMILES,Compound recovery (Plasma [1]),Compound recovery (Plasma [2]),Compound recovery [3],Compound recovery [4],Compound recovery [5],Compound recovery [6],AUCt (Canis familiaris [7]) [ng·h/mL],Cmax (Canis familiaris [8]) [ng/mL],Tmax (Canis familiaris [9]) [h],Compound recovery [10] [ng/g],Compound recovery [11] [ng/g],Compound recovery [12] [ng/g],Compound recovery [13] [ng/g],Drug concentration in myocardium [14] [ng/g],Compound recovery (Plasma [2]; BLD = below limit of detection),Compound recovery (Plasma [15])
CC(=O)N1CCN([C@H]2CCN(C(=O)N(C)[C@H](C)c3cc(C(F)(F)F)cc(C(F)(F)F)c3)[C@@H](c3ccc(F)cc3C)C2)CC1.CS(=O)(=O)O [CASOPITANT MESYLATE],1.5%,1.9%,3.7%,2.4%,7%,11.9%,53599,7167,1,467,2098,1991,889,< 50,–,–
Cc1cc(F)ccc1[C@H]1C[C@@H](N2CCNCC2)CCN1C(=O)N(C)[C@H](C)c1cc(C(F)(F)F)cc(C(F)(F)F)c1,1.5%,0.8%,3.4%,7.6%,7%,11.9%,1803,82,8,3623,14215,7867,11346,< 50,–,metabolite_detected
Cc1cc(F)ccc1[C@H]1C[C@@H](N2CCNC(=O)C2)CCN1C(=O)N(C)[C@H](C)c1cc(C(F)(F)F)cc(C(F)(F)F)c1,1.2%,4.1%,1.6%,3.5%,2.2%,1.2%,21248,1013,8,1517,3286,2010,2416,< 50,–,metabolite_detected
CC(=O)N1CCN([C@H]2CCN(C(=O)N(C)[C@H](C)c3cc(C(F)(F)F)cc(C(F)(F)F)c3)[C@@H](c3ccc(F)cc3C)C2)CC1=O,0.2%,0.9%,0.5%,1.3%,1.1%,0.6%,–,–,–,–,–,–,–,–,–,–
CC(=O)N1CCN([C@H]2CCN(C(=O)N(C)[C@H](C)c3cc(C(F)(F)F)cc(C(F)(F)F)c3)[C@@H](c3ccc(F)cc3C)C2)CC1O (some centres not stated),0.3%,4.8%,2.1%,4.2%,2.9%,1.9%,61603,4357,4,2041,6554,4516,3686,< 50,–,–
